Measurements from patent US20220204539A1, “CD73 INHIBITORS” (BioArdis LLC, priority 2019, published 2022).

Key:
[1] = target: T1, Recombinant Human 5′-Nucleotidase (CD73) (Homo sapiens, UniProt P21589); test: CD73 Enzyme Assay; format: biochemical; settings: human CD73 0.5 nM, AMP 30 μM, PiColorLock phosphate detection; read-out: Potency (IC50, CD73 enzyme assay)
T1 construct: CHO derived CD73 (Trp27-Lys547), with a C-terminal 6-His tag; 6-His (C); purchased R&D 5795-EN; host or cells: CHO
T1 sequence (P21589 27-547): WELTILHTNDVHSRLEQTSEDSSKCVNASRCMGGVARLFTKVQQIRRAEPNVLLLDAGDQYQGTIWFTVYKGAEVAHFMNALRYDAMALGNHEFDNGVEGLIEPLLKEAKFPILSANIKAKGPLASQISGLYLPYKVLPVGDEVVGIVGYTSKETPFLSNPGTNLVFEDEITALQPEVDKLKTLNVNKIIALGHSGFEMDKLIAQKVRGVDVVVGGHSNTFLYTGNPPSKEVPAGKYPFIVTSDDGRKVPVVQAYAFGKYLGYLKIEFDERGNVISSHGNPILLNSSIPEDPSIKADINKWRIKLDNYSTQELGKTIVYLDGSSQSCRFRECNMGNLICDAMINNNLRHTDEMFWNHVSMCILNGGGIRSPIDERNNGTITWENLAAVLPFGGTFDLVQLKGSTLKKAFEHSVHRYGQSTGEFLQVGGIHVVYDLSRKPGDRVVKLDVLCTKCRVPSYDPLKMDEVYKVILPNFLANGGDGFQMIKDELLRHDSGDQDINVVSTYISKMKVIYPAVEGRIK
Procedure, shortened: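 Human CD73 (CHO-derived Trp27-Lys547, His-tagged; 0.5 nM final) was preincubated with compound for 15 min at 25° C. in Tris pH 7.5 buffer with MgCl2. It then reacted with 30 μM AMP for 20 min at 37° C., and released phosphate was read by malachite green absorbance at 635 nm. IC50 came from four-parameter fits against enzyme and no-enzyme controls.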

[2] = target: T2, Cell surface CD73 of U87 MG human glioblastoma cells (Homo sapiens, UniProt P21589); test: CD73 Cellular Assay; format: cell-based; settings: 5000 cells per well, 30 μM AMP substrate, read-out: Potency (IC50, CD73 cellular assay)
T2 construct: Cell surface CD73 catalyzes the conversion of adenosine monophosphate (AMP) to adenosine and inorganic phosphate; endogenous in cells; host or cells: U87 MG human glioblastoma cells
T2 sequence (P21589 27-549): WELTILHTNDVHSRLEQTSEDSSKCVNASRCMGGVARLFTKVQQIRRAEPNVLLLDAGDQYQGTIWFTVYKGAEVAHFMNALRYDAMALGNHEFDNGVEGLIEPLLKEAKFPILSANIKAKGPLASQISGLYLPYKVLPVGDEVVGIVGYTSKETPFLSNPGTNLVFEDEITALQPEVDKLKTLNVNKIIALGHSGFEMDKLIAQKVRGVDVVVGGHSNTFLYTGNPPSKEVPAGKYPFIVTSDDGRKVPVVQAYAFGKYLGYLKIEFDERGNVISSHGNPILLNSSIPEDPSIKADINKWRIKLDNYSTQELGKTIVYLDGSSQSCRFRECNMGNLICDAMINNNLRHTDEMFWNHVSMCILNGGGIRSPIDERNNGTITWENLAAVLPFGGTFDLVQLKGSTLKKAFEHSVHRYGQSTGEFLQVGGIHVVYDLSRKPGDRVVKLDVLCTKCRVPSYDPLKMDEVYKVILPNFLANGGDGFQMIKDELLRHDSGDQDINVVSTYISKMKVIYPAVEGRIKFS
Protocol: Cell surface CD73 catalyzes the conversion of adenosine monophosphate (AMP) to adenosine and inorganic phosphate. U87 MG human glioblastoma cells express high level of CD73. Cells are treated with compounds in a 96-well assay plate and supernatants are collected into a 384-well detection plate. The concentration of inorganic phosphate (Pi) in the supernatants is determined using the phosphate detection reagent, PiColorLock™ (Innova Bioscience, Cat #303-0125) following the manufacturer's instructions.
Briefly, on the day of the assay, U87 MG cells were harvested and resuspended in assay buffer which consisted of 20 mM HEPES, pH=7.4, 137 mM NaCl, 5.4 mM KCl, 1.3 mM CaCl2, 4.2 mM NaHCO3 and 0.1% glucose. To test the effect of compounds on cellular CD73 enzymatic activity, 500 nL/well of compounds dissolved in DMSO were added to a 96-well TC-treated microplate (Corning #3599). Next, 80 μL/well of U87 MG cells in assay buffer were added to assay plate. After 30 minutes of incubation in an atmosphere of 5% CO2 at 37° C., 20 μL/well of 150 μM AMP (Adenosine 5′-monophosphate monohydrate, Sigma, Cat #01930) in assay buffer was added to assay plate. Final assay conditions consisted of 5000 cells per well in 0.5% DMSO and 30 μM AMP substrate. After 50 minutes of incubation in an atmosphere of 5% CO2 at 37° C., 50 μL/well of supernatant was transferred to the 384-well detection plate (Corning® NBS™ 384 well plates, Cat #3640). Meanwhile “Gold mix” was prepared shortly before use by adding 1/100 volume of accelerator to the PiColorLock™ Gold reagent. 12 μL/well of the “Gold mix” was added to detection plate containing 50 μL/well of supernatant and incubated at 25° C. for 5 minutes. 5 μL/well stabilizer was added to the detection plate and incubated at 25° C. for 30 minutes. The absorbance at 635 nm was measured on a Spark 10M instrument (TECAN). The percent (%) inhibition at each concentration of a compound was calculated relative to the OD value in the Max and Min control wells contained within each assay plate. The Max control wells contained cells and substrate as 0% inhibition, and the Min control wells only contained cells as 100% inhibition. The concentrations and percent inhibition values for a test compound are plotted and the concentration of a the compound required to achieve 50% inhibition (IC50) was determined with a four-parameter logistic dose response equation.

Row | Structure (SMILES) | IC50 [1] | IC50 [2]
1 | COC1CCC(Nc2nc(Cl)nn3c([C@@H]4O[C@H](COP(=O)(O)CP(=O)(O)O)[C@@H](O)[C@H]4O)cnc23)C1 (stereo partly drawn) [Compound 23, (((((2R,3S,4R,1S)-5-(2-chloro-4-((3-methoxycyclopentyl)amino)imidazo[2,1-f][1,2,4]triazin-7-yl)-3,4-dihydroxytetrahydrofuran-2-yl)methoxy)(hydroxy)phosphoryl)methyl)phosphonic acid] | < 10 nM | < 1 nM
2 | O=P(O)(O)CP(=O)(O)OC[C@H]1O[C@@H](c2cnc3c(N4Cc5ccccc5C4)nc(Cl)nn23)[C@H](O)[C@@H]1O [Compound 24, [({[(2R,3S,4R,5S)-5-[2-chloro-4-(1,3-dihydroisoindol-2-yl)imidazo[2,1-f][1,2,4]triazin-7-yl]-3,4-dihydroxyoxolan-2-yl]methoxy}(hydroxy)phosphoryl)methyl]phosphonic acid] | < 10 nM | < 1 nM
3 | CO[C@H]1CC[C@@H](Nc2nc(Cl)nn3c([C@@H]4O[C@H](COP(=O)(O)CP(=O)(O)O)[C@@H](O)[C@H]4O)cnc23)CC1 [Compound 27, (((((2R,3S,4R,1S)-5-(2-chloro-4-(((1s,4R)-4-methoxycyclohexyl)amino)imidazo[2,1-f][1,2,4]triazin-7-yl)-3,4-dihydroxytetrahydrofuran-2-yl)methoxy)(hydroxy)phosphoryl)methyl)phosphonic Acid] | < 10 nM | < 1 nM
4 | O=P(O)(O)CP(=O)(O)OC[C@H]1O[C@@H](c2cnc3c(N[C@@H]4CCc5ccccc54)nc(Cl)nn23)[C@H](O)[C@@H]1O [Compound 28, (((((2R,3S,4R,1S)-5-(2-chloro-4-(((R)-2,3-dihydro-1H-inden-1-yl)amino)imidazo[2,1-f][1,2,4]triazin-7-yl)-3,4-dihydroxytetrahydrofuran-2-yl)methoxy)(hydroxy)phosphoryl)methyl)phosphonic Acid] | < 10 nM | < 1 nM
5 | CN(c1nc(Cl)nn2c([C@@H]3O[C@H](COP(=O)(O)CP(=O)(O)O)[C@@H](O)[C@H]3O)cnc12)C1CCc2ccccc21 (stereo partly drawn) [Compound 29, (((((2R,3S,4R,1S)-5-(2-chloro-4-(((R)-2,3-dihydro-1H-inden-1-yl)(methyl)amino)imidazo[2,1-f][1,2,4]triazin-7-yl)-3,4-dihydroxytetrahydrofuran-2-yl)methoxy)(hydroxy)phosphoryl)methyl)phosphonic Acid] | < 10 nM | < 1 nM
6 | C[C@H](Nc1nc(Cl)nn2c([C@@H]3O[C@H](COP(=O)(O)CP(=O)(O)O)[C@@H](O)[C@H]3O)cnc12)c1cncc(F)c1 [Compound 33, (((((2R,3S,4R,5S)-5-(2-chloro-4-(((S)-1-(5-fluoropyridin-3-yl)ethyl)amino)imidazo[2,1-f][1,2,4]triazin-7-yl)-3,4-dihydroxytetrahydrofuran-2-yl)methoxyxhydroxy)phosphoryl)methyl)phosphonic acid] | < 10 nM | 1 to 9.9 nM
7 | C[C@H](Nc1nc(Cl)nn2c([C@@H]3O[C@H](COP(=O)(O)CP(=O)(O)O)[C@@H](O)[C@H]3O)cnc12)c1ccccc1 [Compound 35, (((((2R,3S,4R,1S)-5-(2-chloro-4-(((S)-1-phenylethyl)amino)imidazo[2,1-f][1,2,4]triazin-7-yl)-3,4-dihydroxytetrahydrofuran-2-yl)methoxy)(hydroxy)phosphoryl)methyl)phosphonic Acid] | < 10 nM | < 1 nM
8 | C[C@H](Nc1nc(Cl)nn2c([C@@H]3O[C@H](COP(=O)(O)CP(=O)(O)O)[C@@H](O)[C@H]3O)cnc12)c1ccc(F)cc1 [Compound 37, (((((2R,3S,4R,1S)-5-(2-chloro-4-(((S)-1-(4-fluorophenyl)ethyl)amino)imidazo[2,1-f][1,2,4]triazin-7-yl)-3,4-dihydroxytetrahydrofuran-2-yl)methoxy)(hydroxy)phosphoryl)methyl)phosphonic Acid] | < 10 nM | < 1 nM

Continued, values first:

Row | IC50 [1] | IC50 [2] | Structure (SMILES)
9 | < 10 nM | < 1 nM | O=P(O)(O)CP(=O)(O)OC[C@H]1O[C@@H](c2cnc3c(N[C@@H]4CCOC4)nc(Cl)nn23)[C@H](O)[C@@H]1O [Compound 22, (((((2R,3S,4R,1S)-5-(2-chloro-4-(((R)-tetrahydrofuran-3-yl)amino)imidazo[2,1-f][1,2,4]triazin-7-yl)-3,4-dihydroxytetrahydrofuran-2-yl)methoxy)(hydroxy)phosphoryl)methyl)phosphonic Acid]
10 | < 10 nM | < 1 nM | CN(c1nc(Cl)nn2c([C@@H]3O[C@H](COP(=O)(O)CP(=O)(O)O)[C@@H](O)[C@H]3O)cnc12)[C@H]1CCc2ccccc21 [Compound 30, (((((2R,3S,4R,1S)-5-(2-chloro-4-(((S)-2,3-dihydro-1H-inden-1-yl)(methyl)amino)imidazo[2,1-f][1,2,4]triazin-7-yl)-3,4-dihydroxytetrahydrofuran-2-yl)methoxy)(hydroxy)phosphoryl)methyl)phosphonic Acid]
11 | < 10 nM | < 1 nM | C[C@H](Nc1nc(Cl)nn2c([C@@H]3O[C@H](COP(=O)(O)CP(=O)(O)O)[C@@H](O)[C@H]3O)cnc12)c1ccccc1F [Compound 32, (((((2R,3S,4R,1S)-5-(2-chloro-4-(((S)-1-(2-fluorophenyl)ethyl)amino)imidazo[2,1-f][1,2,4]triazin-7-yl)-3,4-dihydroxytetrahydrofuran-2-yl)methoxy)(hydroxy)phosphoryl)-methyl)phosphonic Acid]
12 | < 10 nM | 1 to 9.9 nM | C[C@@H](Nc1nc(Cl)nn2c([C@@H]3O[C@H](COP(=O)(O)CP(=O)(O)O)[C@@H](O)[C@H]3O)cnc12)c1ccccc1 [Compound 34, [({[(2R,3S,4R,5S)-5-(2-chloro-4-{[(1R)-1-phenylethyl]amino}imidazo[2,1-f][1,2,4]triazin-7-yl)-3,4-dihydroxyoxolan-2-yl]methoxy}(hydroxy)phosphoryl)methyl]phosphonic Acid]
13 | < 10 nM | < 1 nM | C[C@H](Nc1nc(Cl)nn2c([C@@H]3O[C@H](COP(=O)(O)CP(=O)(O)O)[C@@H](O)[C@H]3O)cnc12)c1cccc(F)c1 [Compound 36, (((((2R,3S,4R,5S)-5-(2-chloro-4-(((S)-1-(3-fluorophenyl)ethyl)amino)imidazo[2,1-f][1,2,4]triazin-7-yl)-3,4-dihydroxytetrahydrofuran-2-yl)methoxy)(hydroxy)phosphoryl)methyl) phosphonic acid]
